Laboratory results reported in patent publication US8796457B2, “Compound useful for the treatment of degenerative and inflammatory diseases” (Galapagos NV, priority 2009, dated 2014).

Tests used:
[1] = biological target: Recombinant human JAK3 catalytic domain (Homo sapiens (Human), UniProt P52333); test: JAK3 inhibition assay; type: biochemical; details: average ± standard error of the mean; 1 μM ATP
Experimental: Recombinant human JAK3 catalytic domain (amino acids 781-1124; catalog number PV3855) was purchased from Invitrogen. 0.025 mU of JAK3 was incubated with 2.5 μg polyGT substrate (Sigma catalog number P0275) in kinase reaction buffer (25 mM Tris pH 7.5, 0.5 mM EGTA, 0.5 mM Na3VO4, 5 mM b-glycerolphosphate, 0.01% Triton X-100, 1 μM non-radioactive ATP, 0.25 μCi ^33P-gamma-ATP (GE Healthcare, catalog number AH9968) final concentrations) with or without 5 μL containing test compound or vehicle (DMSO, 1% final concentration), in a total volume of 25 μL, in a polypropylene 96-well plate (Greiner, V-bottom). After 105 min at 30° C., reactions were stopped by adding of 25 μL/well of 150 mM phosphoric acid. […] 40 μL/well of Microscint-20 was added, the top of the plates was sealed and readout was performed using the Topcount (Perkin Elmer). Kinase activity was calculated by subtracting counts per minute (cpm) obtained in the presence of a positive control inhibitor (10 μM staurosporine) from cpm obtained in the presence of vehicle. The ability of a test compound to inhibit this activity was determined as: Percentage inhibition=((cpm determined for sample with test compound present−cpm determined for sample with positive control inhibitor) divided by (cpm determined in the presence of vehicle−cpm determined for sample with positive control inhibitor))*100. […]

[2] = system: TNF release; test: Septic shock model (LPS induced TNF release); type: in vivo, mouse; details: 30 mg/kg po, LPS ip, statistically significant
Experimental: Injection of lipopolysaccharide (LPS) induces a rapid release of soluble tumour necrosis factor (TNF-alpha) into the periphery. This model is used to analyse prospective blockers of TNF release in vivo.
Six BALB/cJ female mice (20 g) per group are treated at the intended dosing once, po. Thirty minutes later, LPS (15 μg/kg; E. Coli serotype 0111:B4) is injected ip. Ninety minutes later, mice are euthanized and blood is collected. Circulating TNF alpha levels are determined using commercially available ELISA kits. Dexamethasone (5 μg/kg) is used as a reference anti-inflammatory compound. Selected compounds are tested at one or multiple doses, e.g. 3 and/or 10 and/or 30 mg/kg, po.

[3] = biological target: Recombinant human JAK2 (catalytic domain) (Homo sapiens (Human), UniProt O60674); test: JAK2 inhibition assay; type: biochemical; details: average ± standard error of the mean; 7.5 μM ATP
Experimental: Recombinant human JAK2 (catalytic domain, amino acids 866-1154; catalog number PV4210) was purchased from Invitrogen. 0.0125 mU of JAK2 was incubated with 25 nM Ulight-JAK1(tyr1023) peptide (Perkin Elmer catalog number TRF0121) in kinase reaction buffer (41.66 mM HEPES pH7.0, 0.016% Triton X-100, 12.5 mM MgCl2, 3.33 mM DTT, 7.5 μM ATP) with or without 4 μL containing test compound or vehicle (DMSO, 1% final concentration), in a total volume of 20 μL, in a white 384 Luminotrac 200 plate (Greiner, catalog number 781075). […] Readout is performed using the Envision with excitation at 320nm and measuring emission at 615 nm (Perkin Elmer). Kinase activity was calculated by subtracting relative fluorescence units (RFU) obtained in the presence of a positive control inhibitor (10 μM staurosporine) from RFU obtained in the presence of vehicle. The ability of a test compound to inhibit this activity was determined as: Percentage inhibition=((RFU determined for sample with test compound present−RFU determined for sample with positive control inhibitor) divided by (RFU determined in the presence of vehicle−RFU determined for sample with positive control inhibitor))*100. […]

[4] = system: JAK1-dependent pathway (IL-6 stimulated STAT1 phosphorylation, CD4+ cells) in human whole blood; test: Whole blood assay, IL-6 stimulation, Phospho-STAT1 FACS; type: cell-based
Experimental: A flow cytometry analysis was also performed to establish compound selectivity for JAK1 over JAK2, ex vivo using human whole blood.
Remaining diluted Lyse/Fix buffer was discarded.
The stock solution was stored aliquoted at −80° C.
Control-treated samples received DMSO instead of compound.
Human blood was collected in heparinized tubes.

Chain of Recombinant human JAK2 (catalytic domain) (O60674 849-1124): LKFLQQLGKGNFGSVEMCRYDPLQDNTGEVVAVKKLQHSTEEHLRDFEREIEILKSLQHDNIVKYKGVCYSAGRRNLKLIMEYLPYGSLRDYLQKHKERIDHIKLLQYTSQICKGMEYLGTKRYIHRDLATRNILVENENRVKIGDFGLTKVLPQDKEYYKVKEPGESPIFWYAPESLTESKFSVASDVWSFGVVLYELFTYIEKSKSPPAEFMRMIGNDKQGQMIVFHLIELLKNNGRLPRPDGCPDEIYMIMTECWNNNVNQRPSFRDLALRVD
Chain of Recombinant human JAK3 catalytic domain (P52333 781-1124): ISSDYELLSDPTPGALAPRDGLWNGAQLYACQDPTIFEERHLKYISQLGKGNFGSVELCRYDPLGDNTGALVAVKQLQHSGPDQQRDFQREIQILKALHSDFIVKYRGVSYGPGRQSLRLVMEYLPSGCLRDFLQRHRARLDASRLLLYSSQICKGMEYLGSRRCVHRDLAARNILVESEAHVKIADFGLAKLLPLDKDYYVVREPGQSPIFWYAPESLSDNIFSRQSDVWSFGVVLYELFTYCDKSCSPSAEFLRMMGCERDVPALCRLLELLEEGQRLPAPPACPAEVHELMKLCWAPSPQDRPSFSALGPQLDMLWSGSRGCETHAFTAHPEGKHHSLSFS

## CC1(C)CN(C(=O)c2ccc(-c3cccc4nc(NC(=O)C5CC5)nn34)cc2)C1 [Compound 1, Cyclopropanecarboxylic acid{5-[4-(3,3-dimethyl-azetidine-1-carbonyl)-phenyl]-[1,2,4]triazolo[1,5-a]pyridin-2-yl}-amide]
[1]
  IC50: 408 ± 62 nM
[2]
  reduction in the TNF release: > 50%
[3]
  IC50: 67 ± 5 nM
[4]; Homo sapiens, IL-6 stimulation, FACS, CD4+ cells, mean of 3 healthy volunteers, read-out: pIC50 in the inhibition of STAT1 phosphorylation (converted)
  IC50: 245 nM
[4]; IL-6 pSTAT1 vs GM-CSF pSTAT5, human whole blood FACS
  selectivity for JAK1 vs. JAK2 (STAT1 vs STAT5): 17.6 fold
